For ten compounds, logD results are on record in the SangsterLogP compilation.

Molecules are shown by their SMILES.

As usually defined, the logD is lipophilicity at a set pH, counting ionised and neutral species. Low readings indicate a more hydrophilic compound, high ones a more lipophilic compound.

This series is described as follows: method code SF-AS, from DOI: 10.1016/0378-5173(79)90126-1. The following applies: pH 3.5.
In turn, `CCC(CC)(C(=O)NC(N)=O)C(=O)OCC(=O)OC` returned a logD of 0.99.

`CNC(=O)NC(=O)C(C)(C(=O)OCOC)C1=CCCCC1` (stereo not given): the logD was 1.8.

Turning to `C=CCC(CC=C)(C(=O)NC(N)=O)C(=O)OC`, the logD is 1.37.

As to `CCC(CC)(C(=O)NC(N)=O)C(=O)OCc1ccccc1`, the pH-dependent lipophilicity (logD) amounted to 2.74.

As to `CNC(=O)NC(=O)C(C)(C(=O)OC)C1C=CCCC1` (stereo not given), the logD amounted to 1.75.

As for `CCOC(=O)C(CC)(CC)C(=O)NC(N)=O`, the log distribution coefficient (logD) came out at 1.45.

With `CCNC(=O)NC(=O)C(C)(C(=O)OC)C1=CCCCC1` (stereo not given), the logD was determined as 2.25.

Compound `CCC(CC)(C(=O)NC(N)=O)C(=O)OC` returned a logD of 0.95.

`CCC(C(=O)NC(N)=O)(C(=O)OC)c1ccccc1` (stereo not given): the logD is 1.58.

In turn, `CCC(CC)(C(=O)NC(N)=O)C(=O)OC(C)C` displayed a logD of 1.99.
